Laboratory results as given in patent US9951026B2, “Heterocyclic vinyl autotaxin inhibitor compounds” (PharmAkea, Inc., priority 2013, dated 2018).

The compounds below were run against human autotaxin (Homo sapiens (Human), UniProt Q13822) (assay: Human Autotaxin Assay). Details: not given.
Type: biochemical
Method: ATX activity is assayed in concentrated conditioned media from Hep3B human hepatocellular carcinoma cells by measuring the amount of choline released from the substrate, lysophosphatidylcholine (LPC) as it is cleaved to LPA. Conditioned media is collected from confluent Hep3B cells and concentrated 20-fold using Centriprep-30 filter devices (Millipore). […] 100 μl of a color mix containing 4.5 mM 4-aminoantipyrine, 2.7 mM N-ethyl-N-(2-hydroxy-3-sulfopropyl)-m-toluidine, 21 units/ml horseradish peroxidase and 3 units/ml choline oxidase in 50 mM Tris, pH 8, 4.5 mM MgCl2 is added and the incubation continued for 15 minutes at room temperature before reading the absorbance at 555 nm.

| SMILES | IC50 [nM] |
| --- | --- |
| N#C/C(=C\c1cn(Cc2ccc(F)cc2)c2nc(Cl)ccc12)c1ccc(C(=O)O)cc1 [Compound 3-3, (Z)-4-(2-(6-chloro-1-(4-fluorobenzyl)-1H-pyrrolo[2,3-b]pyridin-3-yl)-1-cyanovinyl)benzoic acid] | 500 to 10000 |

Same assay, conditions: ATX in concentrated conditioned media from Hep3B cells; choline released from LPC substrate; read-out: IC50

| SMILES | IC50 [nM] |
| --- | --- |
| N#C/C(=C\c1nn(Cc2ccc(F)cc2)c2cc(Cl)ccc12)c1ccc(C(=O)O)cc1 [Compound 1-1, (Z)-4-(2-(6-chloro-1-(4-fluorobenzyl)-1H-indazol-3-yl)-1-cyanovinyl)benzoic acid] | < 500 |
| N#C/C(=C\c1nn(Cc2ccccc2)c2cc(Cl)ccc12)c1ccc(C(=O)O)cc1 [Compound 1-2, (Z)-4-(2-(1-benzyl-6-chloro-1H-indazol-3-yl)-1-cyanovinyl)benzoic acid] | < 500 |
| N#C/C(=C\c1nn(Cc2cc(Cl)cc(Cl)c2)c2cc(Cl)ccc12)c1ccc(C(=O)O)cc1 [Compound 1-3] | 500 to 10000 |
| N#C/C(=C\c1nn(Cc2cc(C(F)(F)F)cc(C(F)(F)F)c2)c2cc(Cl)ccc12)c1ccc(C(=O)O)cc1 [Compound 1-4, (Z)-4-(2-(1-(3,5-bis(trifluoromethyl)benzyl)-6-chloro-1H-indazol-3-yl)-1-cyanovinyl)benzoic acid] | 500 to 10000 |
| Cn1ccc(Cn2nc(/C=C(\C#N)c3ccc(C(=O)O)cc3)c3ccc(Cl)cc32)n1 [Compound 1-5, (Z)-4-(2-(6-chloro-1-((1-methyl-1H-pyrazol-3-yl)methyl)-1H-indazol-3-yl)-1-cyanovinyl)benzoic acid] | > 10000 |
| N#C/C(=C\c1nn(Cc2ccc(Cl)nc2)c2cc(Cl)ccc12)c1ccc(C(=O)O)cc1 [Compound 1-6, (Z)-4-(2-(6-chloro-1-((6-chloropyridin-3-yl)methyl)-1H-indazol-3-yl)-1-cyanovinyl)benzoic acid] | < 500 |
| COc1ccc(Cn2nc(/C=C(\C#N)c3ccc(C(=O)O)cc3)c3ccc(Cl)cc32)cn1 [Compound 1-7, (Z)-4-(2-(6-chloro-1-((6-methoxypyridin-3-yl)methyl)-1H-indazol-3-yl)-1-cyanovinyl)benzoic acid] | < 500 |
| O=C(O)c1ccc(/C=C/c2nn(Cc3ccc(F)cc3)c3cc(Cl)ccc23)cc1 [Compound 1-8, (E)-4-(2-(6-chloro-1-(4-fluorobenzyl)-1H-indazol-3-yl)vinyl)benzoic acid] | 500 to 10000 |

Further lines, results first:

| IC50 [nM] | SMILES |
| --- | --- |
| < 500 | N#C/C(=C\c1cn(Cc2ccc(F)cc2)c2ncccc12)c1ccc(C(=O)O)cc1 [Compound 3-1, (Z)-4-(1-cyano-2-(1-(4-fluorobenzyl)-1H-pyrrolo[2,3-b]pyridin-3-yl)vinyl)benzoic acid] |
| 500 to 10000 | COc1ccc(Cn2cc(/C=C(\C#N)c3ccc(C(=O)O)cc3)c3cccnc32)cn1 [Compound 3-2, (Z)-4-(1-cyano-2-(1-((6-methoxypyridin-3-yl)methyl)-1H-pyrrolo[2,3-b]pyridin-3-yl)vinyl)benzoic acid] |
| < 500 | COc1ccc(Cn2cc(/C=C(\C#N)c3ccc(C(=O)O)cc3)c3ccc(Cl)nc32)cn1 [Compound 3-4, (Z)-4-(2-(6-chloro-1-((6-methoxypyridin-3-yl)methyl)-1H-pyrrolo[2,3-b]pyridin-3-yl)-1-cyanovinyl)benzoic acid] |
| > 10000 | CCCn1cc(-n2c(C)c(/C=C(\C#N)c3ccc(C(=O)O)cc3)c3ccsc32)cn1 [Compound 5-1, (Z)-4-(1-cyano-2-(5-methyl-6-(1-propyl-1H-pyrazol-4-yl)-6H-thieno[2,3-b]pyrrol-4-yl)vinyl)benzoic acid] |
